Test results: patent US12522594B2, “2-heteroaryl-3-oxo-2,3-dihydropyridazine-4-carboxamides for the treatment of cancer” (Deutsches Krebsforschungszentrum, priority 2017, dated 2026)

Legend:
AHR [1] = target: T1, AHR (Homo sapiens, UniProt P35869); experiment: In vitro assay 1: antagonism in human cell line (transactivation assay, U87 cells prestimulated with kynurenic acid, DRE firefly luciferase reporter); format: cell-based; set-up: host or cells: U87 glioblastoma cells, stably transfected with DRE firefly luciferase and renilla reporter constructs; conditions: 150 uM kynurenic acid, 20 hours, read-out: Assay 1: AHR-luc Hum Antagonism IC50
T1 sequence (P35869 11-848): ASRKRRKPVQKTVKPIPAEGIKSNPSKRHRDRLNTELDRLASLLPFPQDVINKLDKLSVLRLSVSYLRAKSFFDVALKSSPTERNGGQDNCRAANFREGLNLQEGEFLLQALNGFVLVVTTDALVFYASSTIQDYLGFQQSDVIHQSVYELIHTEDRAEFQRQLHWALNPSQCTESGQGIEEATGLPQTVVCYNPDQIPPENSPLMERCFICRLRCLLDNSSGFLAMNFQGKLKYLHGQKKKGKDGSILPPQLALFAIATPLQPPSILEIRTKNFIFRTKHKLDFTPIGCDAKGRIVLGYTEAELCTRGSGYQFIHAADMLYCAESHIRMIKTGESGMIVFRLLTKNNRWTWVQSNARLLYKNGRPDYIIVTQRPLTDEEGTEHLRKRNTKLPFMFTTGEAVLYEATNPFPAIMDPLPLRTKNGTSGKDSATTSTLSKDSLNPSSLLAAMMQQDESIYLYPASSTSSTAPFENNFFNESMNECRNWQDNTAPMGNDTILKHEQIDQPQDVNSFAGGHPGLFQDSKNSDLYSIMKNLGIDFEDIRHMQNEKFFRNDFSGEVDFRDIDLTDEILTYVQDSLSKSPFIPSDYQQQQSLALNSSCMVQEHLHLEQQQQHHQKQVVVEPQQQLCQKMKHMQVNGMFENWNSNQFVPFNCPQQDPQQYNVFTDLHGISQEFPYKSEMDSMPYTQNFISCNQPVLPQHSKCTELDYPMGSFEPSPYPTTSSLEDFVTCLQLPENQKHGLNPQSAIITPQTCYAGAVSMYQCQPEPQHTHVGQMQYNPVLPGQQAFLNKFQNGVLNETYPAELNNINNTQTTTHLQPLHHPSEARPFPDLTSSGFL
Method: (§1) Transactivation Assay in Human Cell Line (In Vitro Assays 1 and 2)
(§2) Transactivation assays were carried out in U87 glioblastoma cells (ATCC) endogenously expressing AHR. In addition the cells were stably transfected with an AHR inducible firefly luciferase reporter gene construct that carried AHR-binding sites (DRE) in its promoter and a renilla reporter gene construct with constitutively active promoter. Kynurenic acid is an endogenous AHR activating ligand and was used to prestimulate test cells prior to testing the antagonistic properties of compounds.
In Vitro Assay 1: Antagonism in Human Cell Line
Normalization was done by positive and negative controls.

AHR [2] = target: T1, AHR; experiment: In vitro assay 2: agonism in human cell line (transactivation assay, U87 cells, DRE firefly luciferase reporter); format: cell-based; set-up: host or cells: U87 glioblastoma cells, stably transfected with DRE firefly luciferase and renilla reporter constructs; conditions: no kynurenic acid, 20 hours, read-out: Assay 2: AHR-luc Hum Agonism IC50
Method: as §1, §2
In Vitro Assay 2: Agonism in Human Cell Line
As positive activation control cells were incubated with 300 uM kynurenic acid. Normalization was done by positive and negative controls.

| IC50 (AHR [1]) [nM] | IC50 (AHR [2]) [µM] | SMILES |
| --- | --- | --- |
| 9.55 | > 20 | O=C(N[C@H]1CCCC(F)(F)[C@@H]1O)c1cc(-c2ccc(OC(F)(F)F)cc2)nn(-c2cccnc2)c1=O (relative stereo) [Example 140, N-[(trans)-3,3-Difluoro-2-hydroxycyclohexyl]-3-oxo-2-(pyridin-3-yl)-6-[4-(trifluoromethoxy)phenyl]-2,3-dihydropyridazine-4-carboxamide] |
| 15.3 | > 20 | O=C(N[C@@H]1CCC[C@H]1O)c1cc(-c2ccc(Cl)cc2)nn(-c2cccnc2)c1=O (relative stereo) [Example 148, 6-(4-Chlorophenyl)-N-[(trans)-2-hydroxycyclopentyl]-3-oxo-2-(pyridin-3-yl)-2,3-dihydropyridazine-4-carboxamide] |
| 36.8 | > 20 | O=C(N[C@H]1COC[C@@H]1O)c1cc(-c2ccc(Cl)cc2)nn(-c2cncc(F)c2)c1=O (relative stereo) [Example 154, 6-(4-Chlorophenyl)-2-(5-fluoropyridin-3-yl)-N-[(trans)-4-hydroxytetrahydrofuran-3-yl]-3-oxo-2,3-dihydropyridazine-4-carboxamide] |
| 39.3 | > 20 | O=C(N[C@H]1COC[C@H]1O)c1cc(-c2ccc(OC(F)(F)F)cc2)nn(-c2cccnc2)c1=O (relative stereo) [Example 157, N-[(cis)-4-Hydroxytetrahydrofuran-3-yl]-3-oxo-2-(pyridin-3-yl)-6-[4-(trifluoromethoxy)phenyl]-2,3-dihydropyridazine-4-carboxamide] |
| 911 | > 20 | O=C(N[C@H]1COC[C@H]1O)c1cc(-c2ccc(Cl)cc2)nn(-c2ccnnc2)c1=O (relative stereo) [Example 181, 3-(4-Chlorophenyl)-N-[(cis)-4-hydroxytetrahydrofuran-3-yl]-6-oxo-6H-1,4′-bipyridazine-5-carboxamide] |
| 6110 | > 20 | O=C(N[C@H]1COC[C@H]1O)c1cc(-c2ccc(C(F)F)nc2)nn(-c2cccnc2)c1=O (relative stereo) [Example 182, 6-[6-(Difluoromethyl)pyridin-3-yl]-N-[(cis)-4-hydroxytetrahydrofuran-3-yl]-3-oxo-2-(pyridin-3-yl)-2,3-dihydropyridazine-4-carboxamide] |
| 2.21 | > 20 | Cn1cc(-n2nc(-c3ccc(C(F)(F)F)cc3)cc(C(=O)N[C@@H]3COC[C@@H]3O)c2=O)cn1 (relative stereo) [Example 215, N-cis-4- Hydroxytetrahyd rofuran-3-yl-2-(1-methyl-1H-pyrazol-4-yl)-3-oxo-6-[4-(trifluoromethyl)phenyl]-2,3-dihydropyridazine-4-carboxamide] |
| 4.37 | > 20 | O=C(N[C@@H]1CC[C@@H]1O)c1cc(-c2ccc(C(F)(F)F)cc2)nn(-c2cccnc2)c1=O (relative stereo) [Example 224, N-cis-2- Hydroxycyclobutyl-3-oxo-2-(pyridin-3-yl)-6-[4-(trifluoromethyl)phenyl]-2,3-dihydropyridazine-4-carboxamide] |
| 27.5 | > 20 | O=C(N[C@@H]1CC[C@@H]1O)c1cc(-c2ccc(Cl)cc2)nn(-c2cccnc2)c1=O (relative stereo) [Example 258, 6-(4-Chlorophenyl)-N-cis-2-hydroxycyclobutyl-3-oxo-2-(pyridin-3-yl)-2,3-dihydropyridazine-4-carboxamide] |
| 2.82 | > 20 | O=C(N[C@@H]1CSC[C@@H]1O)c1cc(-c2ccc(C(F)(F)F)cc2)nn(-c2cccnc2)c1=O (relative stereo) [Example 290, N-cis-4-Hydroxytetra-hydrothiophen-3-yl-3-oxo-2-(pyridin-3-yl)-6-[4-(trifluoromethyl)phenyl]-2,3-dihydropyridazine-4-carboxamide] |
| 31 | > 20 | O=C(N[C@@H]1COC[C@@H]1O)c1cc(-c2ccc(Cl)cc2)nn(-c2cncc(F)c2)c1=O (relative stereo) [Example 301, 6-(4-Chlorophenyl)-2-(5-fluoropyridin-3-yl)-N-[(cis)-4-hydroxytetrahydro-furan-3-yl]-3-oxo-2,3-dihydropyridazine-4-carboxamide] |
| 60.4 | > 20 | O=C(N[C@@H]1COC[C@@H]1O)c1cc(-c2ccc(C(F)F)cc2)nn(-c2cccnc2)c1=O (relative stereo) [Example 323, 6-[4-(Difluoromethyl)phenyl]-N-[(cis)-4-hydroxy-tetrahydrofuran-3-yl]-3-oxo-2-(pyridin-3-yl)-2,3-dihydropyridazine-4-carboxamide] |
| 30.6 | > 20 | C[C@]1(O)CCC[C@H]1NC(=O)c1cc(-c2ccc(OC(F)(F)F)cc2)nn(-c2cccnc2)c1=O (relative stereo) [Example 328, N-[(cis)-2-Hydroxy-2-methylcyclopentyl]-3-oxo-2-(pyridin-3-yl)-6-[4-(trifluoromethoxy)phenyl]-2,3-dihydropyridazine-4-carboxamide] |
| 105 | > 20 | Cc1ccc(-c2cc(C(=O)NC(CO)C(C)C)c(=O)n(-c3cnn(C)c3)n2)cc1 (single isomer, unassigned) [Example 3, N-(1-Hydroxy-3-methylbutan-2-yl)-6-(4-methylphenyl)-2-(1-methyl-1H-pyrazol-4-yl)-3-oxo-2,3-dihydropyridazine-4-carboxamide] |
| 181 | > 20 | CCC(CO)NC(=O)c1cc(-c2ccc(C)cc2)nn(-c2cnn(C)c2)c1=O (single isomer, unassigned) [Example 6, N-(1-Hydroxybutan-2-yl)-6-(4-methylphenyl)-2-(1-methyl-1H-pyrazol-4-yl)-3-oxo-2,3-dihydropyridazine-4-carboxamide] |
| 1970 | > 20 | O=C(N[C@H]1COC[C@H]1O)c1cc(-c2ccc(C(F)F)nc2)nn(-c2cccnc2)c1=O (single isomer, unassigned) [Example 183, 6-[6-(Difluoromethyl)pyridin-3-yl]-N-[(cis)-4-hydroxytetrahydrofuran-3-yl]-3-oxo-2-(pyridin-3-yl)-2,3-dihydropyridazine-4-carboxamide] |
| 33.5 | > 20 | CC(C)(O)C(NC(=O)c1cc(-c2ccc(Cl)cc2)nn(-c2cncnc2)c1=O)C(F)(F)F (single isomer, unassigned) [Example 187, 6-(4-Chlorophenyl)-3-oxo-2-(pyrimidin-5-yl)-N-(1,1,1-trifluoro-3-hydroxy-3-methylbutan-2-yl)-2,3-dihydropyridazine-4-carboxamide] |
| 15.3 | > 20 | O=C(N[C@@H]1CC[C@@H]1O)c1cc(-c2ccc(Cl)cc2)nn(-c2cccnc2)c1=O (single isomer, unassigned) [Example 249, (+)-6-(4-Chlorophenyl)-N-cis-2-hydroxycyclo-butyl-3-oxo-2-(pyridin-3-yl)-2,3-dihydropyridazine-4-carboxamide] |
| 56.9 | > 20 | O=C(N[C@@H]1CC[C@@H]1O)c1cc(-c2ccc(C(F)(F)F)cc2)nn(-c2cccnc2)c1=O (single isomer, unassigned) [Example 268, (−)-N-cis-2-Hydroxycyclo-butyl-3-oxo-2-(pyridin-3-yl)-6-[4-(trifluoromethyl)phenyl]-2,3-dihydropyridazine-4-carboxamide] |
| 261 | > 20 | O=C(N[C@@H]1CC[C@@H]1O)c1cc(-c2ccc(Cl)cc2)nn(-c2cccnc2)c1=O (single isomer, unassigned) [Example 281, (−)-6-(4-Chlorophenyl)-N-cis-2-hydroxycyclobutyl-3-oxo-2-(pyridin-3-yl)-2,3-dihydropyridazine-4-carboxamide] |
| 4.38 | > 20 | O=C(N[C@@H]1CSC[C@@H]1O)c1cc(-c2ccc(C(F)(F)F)cc2)nn(-c2cccnc2)c1=O (single isomer, unassigned) [Example 291, (−)-N-cis-4-hydroxy-tetrahydrothiophen-3-yl-3-oxo-2-(pyridin-3-yl)-6-[4-(trifluoromethyl)phenyl]-2,3-dihydropyridazine-4-carboxamide] |
